Test results as given in US12371454B2, “Cyclic peptide compound having Kras inhibitory action” (priority 2019, dated 2025).
Starred links: 1 amine or outer side, 2 acyl side, 3 side chain; linkers in the order of their positions; H or OH if unused. Positions of bridges follow the written chain, without caps; N, C: chain ends. Non-standard residues stand in square brackets, D forms with d. Residues, ends and D or L forms follow the SMILES beside them. *: point of attachment. hPhe(3,5-F2-4-CF3) = N[C@@H](CCc1cc(F)c(C(F)(F)F)c(F)c1)C(=O)O; hPhe(3-Cl-4-CF3) = N[C@@H](CCc1ccc(C(F)(F)F)c(Cl)c1)C(=O)O; NMePhe(4-CF3) = CN[C@@H](Cc1ccc(C(F)(F)F)cc1)C(=O)O; Thiomorpholino(1,1-dioxo) = O=S1(=O)CCN(*)CC1; 3Oxa8azabicyclo(3.2.1)octane = C1CC2COCC1N2*; NMeAbu(4,4,4-F3) = CN[C@@H](CC(F)(F)F)C(=O)O; NMePhe(4-Cl) = CN[C@@H](Cc1ccc(Cl)cc1)C(=O)O; NMePhe(4-Me) = CN[C@@H](Cc1ccc(C)cc1)C(=O)O; X41 = O=C([C@H](Cc1cccc(I)c1F)N[*:1])[*:2]; X53 = O=C([C@H](Cc1cccc(F)c1F)N[*:1])[*:2]; X56 = O=C([C@H](Cc1cc(F)ccc1F)N[*:1])[*:2]; X8 = O=C([C@H](Cc1cc(I)ccc1F)N[*:1])[*:2]; NMeGly(cPent) = CN[C@H](C(=O)O)C1CCCC1; Phe(3-I) = N[C@@H](Cc1cccc(I)c1)C(=O)O; Pro(4,4-F2) = O=C(O)[C@@H]1CC(F)(F)CN1; NMeY = CN[C@@H](Cc1ccc(O)cc1)C(=O)O; NMeCha = CN[C@@H](CC1CCCCC1)C(=O)O; NMehLeu = CN[C@@H](CCC(C)C)C(=O)O; Hyp = O=C(O)[C@@H]1C[C@@H](O)CN1; NEtLeu = CCN[C@@H](CC(C)C)C(=O)O; NMeChg = CN[C@H](C(=O)O)C1CCCCC1; NMeI = CC[C@H](C)[C@H](NC)C(=O)O; NMeD = CN[C@@H](CC(=O)O)C(=O)O; NMeL = CN[C@@H](CC(C)C)C(=O)O; NMeAbu = CC[C@H](NC)C(=O)O; Morpholide = C1CN(*)CCO1; NMeA = CN[C@@H](C)C(=O)O; NMeAib = CNC(C)(C)C(=O)O; Nle = CCCC[C@H](N)C(=O)O; Piperidide = C1CCN(*)CC1; Pra = C#CC[C@H](N)C(=O)O; Pyrrolidide = C1CCN(*)C1; Ac5c = NC1(C(=O)O)CCCC1; Aze = O=C(O)[C@@H]1CCN1; CF3 = FC(F)(F)*; Sar = CNCC(=O)O

Molecular target: T1, Kras and SOS1 (biotin-tagged human Kras loaded with GDP, His-tagged human SOS1) (Homo sapiens, UniProt P01116, G12D)
T1 construct: made in house; host or cells: E. coli (stated for Kras only)
Assay: Protein-protein interaction inhibition between Kras and SOS1 (KrasGl2D-SOS PPI) using AlphaScreen
Type: binding
Settings: AlphaScreen; biotin-tagged human Kras loaded with GDP, His-tagged human SOS1; read-out: KRAS G12D-SOS PPI IC50
In short: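 Kras was produced in E. coli, purified, then loaded with GDP. It was paired via streptavidin acceptor beads with His-SOS1 held on nickel donor beads, and proximity signal at 520-620 nm was read after 680 nm illumination.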

T1 sequence (P01116 1-188 isoform P01116-2 G12D): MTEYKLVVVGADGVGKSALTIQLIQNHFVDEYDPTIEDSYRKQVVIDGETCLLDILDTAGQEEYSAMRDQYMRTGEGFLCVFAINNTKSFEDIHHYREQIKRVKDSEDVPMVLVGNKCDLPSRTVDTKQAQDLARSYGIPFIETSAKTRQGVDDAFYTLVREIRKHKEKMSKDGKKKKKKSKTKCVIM

Row | Compound | IC50 [nM]
1 | CCCC[C@@H]1NC(=O)[C@H](Cc2cccc(I)c2F)NC(=O)CN(C)C(=O)[C@H](Cc2ccc(OC)cc2)N(C)C(=O)[C@@H]2CCN2C(=O)[C@H](C)N(C)C(=O)[C@H]([C@@H](C)CC)NC(=O)[C@H](CC)N(C)C(=O)C[C@@H](C(=O)N2CCCCC2)N(C)C(=O)[C@H](CC(C)C)NC(=O)C(C)(C)N(C)C1=O [Compound 1249] ([NMeAbu]I[NMeA][Aze][NMeY](Me)[Sar][X41][Nle][NMeAib]L[NMeD]-Piperidide; lactam N-11) | 33
2 | CCCC[C@@H]1NC(=O)[C@H](Cc2cccc(F)c2F)NC(=O)CN(C)C(=O)[C@H](Cc2ccc(OC)cc2)N(C)C(=O)[C@@H]2CCN2C(=O)[C@H](C)N(C)C(=O)[C@H]([C@@H](C)CC)NC(=O)[C@H](CC)N(C)C(=O)C[C@@H](C(=O)N2CCCCC2)N(C)C(=O)[C@H](CC(C)C)NC(=O)C(C)(C)N(C)C1=O [Compound 1256] ([NMeAbu]I[NMeA][Aze][NMeY](Me)[Sar][X53][Nle][NMeAib]L[NMeD]-Piperidide; lactam N-11) | 9.1
3 | CC[C@H](C)[C@@H]1NC(=O)[C@H](CC(C)C)N(C)C(=O)C[C@@H](C(=O)N2C3CCC2COC3)NC(=O)[C@H]([C@@H](C)CC)N(C)C(=O)C2(CCCC2)NC(=O)[C@@H]2CCCN2C(=O)[C@H](CCc2ccc(C(F)(F)F)c(Cl)c2)NC(=O)CN(C)C(=O)[C@H](CC2CCCCC2)N(C)C(=O)CN(C)C(=O)CN(C)C1=O [Compound 1257] ([NMeL]I[Sar][Sar][NMeCha][Sar][hPhe(3-Cl-4-CF3)]P[Ac5c][NMeI]D-{3Oxa8azabicyclo(3.2.1)octane}; lactam N-11) | 6.5
4 | C#CC[C@@H]1NC(=O)[C@H](Cc2cccc(I)c2)NC(=O)CN(C)C(=O)[C@H](Cc2ccc(C(F)(F)F)cc2)N(C)C(=O)[C@@H]2CCN2C(=O)[C@H](C)N(C)C(=O)[C@H]([C@@H](C)CC)NC(=O)[C@H](CC(C)C)N(C)C(=O)C[C@@H](C(=O)N2CCCCC2)N(C)C(=O)[C@H](CC(C)C)NC(=O)C(C)(C)N(C)C1=O [Compound 1258] ([NMeL]I[NMeA][Aze][NMePhe(4-CF3)][Sar][Phe(3-I)][Pra][NMeAib]L[NMeD]-Piperidide; lactam N-11) | 26
5 | CC[C@H](C)[C@@H]1NC(=O)[C@H](CC(F)(F)F)N(C)C(=O)C[C@@H](C(=O)N2CCOCC2)N(C)C(=O)[C@H](C2CCCCC2)N(C)C(=O)C2(CCCC2)NC(=O)[C@@H]2CC(F)(F)CN2C(=O)[C@H](CCc2cc(F)c(C(F)(F)F)c(F)c2)NC(=O)CN(C)C(=O)[C@H](Cc2ccc(C(F)(F)F)cc2)N(C)C(=O)CN(C)C(=O)CN(C)C1=O [Compound 1260] ([NMeAbu(4,4,4-F3)]I[Sar][Sar][NMePhe(4-CF3)][Sar][hPhe(3,5-F2-4-CF3)][Pro(4,4-F2)][Ac5c][NMeChg][NMeD]-Morpholide; lactam N-11) | 0.54
6 | CCO[C@@H]1C[C@H]2C(=O)NC3(CCCC3)C(=O)N(C)[C@@H]([C@@H](C)CC)C(=O)N(C)[C@H](C(=O)N3CCOCC3)CC(=O)N(C)[C@@H](CC(C)C)C(=O)N[C@@H]([C@@H](C)CC)C(=O)N(C)[C@@H](C)C(=O)N3CC[C@H]3C(=O)N(C)[C@@H](Cc3ccc(C(F)(F)F)cc3)C(=O)N(C)CC(=O)N[C@@H](CCc3cc(F)c(C(F)(F)F)c(F)c3)C(=O)N2C1 [Compound 1261] ([NMeL]I[NMeA][Aze][NMePhe(4-CF3)][Sar][hPhe(3,5-F2-4-CF3)][Hyp](Et)[Ac5c][NMeI][NMeD]-Morpholide; lactam N-11) | 0.65
7 | CC[C@H](C)[C@@H]1NC(=O)[C@H](CC(C)C)N(C)C(=O)C[C@@H](C(=O)N2CCS(=O)(=O)CC2)N(C)C(=O)[C@H](C2CCCCC2)N(C)C(=O)C2(CCCC2)NC(=O)[C@@H]2CCCN2C(=O)[C@H](CCc2ccc(C(F)(F)F)c(Cl)c2)NC(=O)CN(C)C(=O)[C@H](CC2CCCCC2)N(C)C(=O)CN(C)C(=O)CN(C)C1=O [Compound 1263] ([NMeL]I[Sar][Sar][NMeCha][Sar][hPhe(3-Cl-4-CF3)]P[Ac5c][NMeChg][NMeD]-{Thiomorpholino(1,1-dioxo)}; lactam N-11) | 2.7
8 | CCCC[C@@H]1NC(=O)[C@H](Cc2cc(F)ccc2F)NC(=O)CN(C)C(=O)[C@H](Cc2ccc(OC)cc2)N(C)C(=O)[C@@H]2CCN2C(=O)[C@H](C)N(C)C(=O)[C@H]([C@@H](C)CC)NC(=O)[C@H](CC)N(C)C(=O)C[C@@H](C(=O)N2CCCCC2)N(C)C(=O)[C@H](CC(C)C)NC(=O)C(C)(C)N(C)C1=O [Compound 1268] ([NMeAbu]I[NMeA][Aze][NMeY](Me)[Sar][X56][Nle][NMeAib]L[NMeD]-Piperidide; lactam N-11) | 19
9 | CC[C@H](C)[C@@H]1NC(=O)[C@H](CC(C)C)N(C)C(=O)C[C@@H](C(=O)N2CCCC2)N(C)C(=O)[C@H](C2CCCC2)N(C)C(=O)C2(CCCC2)NC(=O)[C@@H]2CC(F)(F)CN2C(=O)[C@H](CCc2ccc(C(F)(F)F)c(Cl)c2)NC(=O)CN(C)C(=O)[C@H](CC2CCCCC2)N(C)C(=O)CN(C)C(=O)CN(C)C1=O [Compound 1270] ([NMeL]I[Sar][Sar][NMeCha][Sar][hPhe(3-Cl-4-CF3)][Pro(4,4-F2)][Ac5c][NMeGly(cPent)][NMeD]-Pyrrolidide; lactam N-11) | 0.61
10 | CC[C@H](C)[C@@H]1NC(=O)[C@H](CC(C)C)N(C)C(=O)C[C@@H](C(=O)N2CCCCC2)NC(=O)[C@H](C2CCCCC2)N(C)C(=O)C2(CCCC2)NC(=O)[C@@H]2CCCN2C(=O)[C@H](CCc2ccc(C(F)(F)F)c(Cl)c2)NC(=O)CN(C)C(=O)[C@H](CC2CCCCC2)N(C)C(=O)CN(C)C(=O)CN(C)C1=O [Compound 1274] ([NMeL]I[Sar][Sar][NMeCha][Sar][hPhe(3-Cl-4-CF3)]P[Ac5c][NMeChg]D-Piperidide; lactam N-11) | 3.8
11 | CC[C@H](C)[C@@H]1NC(=O)[C@H](CC(C)C)N(C)C(=O)C[C@@H](C(=O)N2CCOCC2)NC(=O)[C@H]([C@@H](C)CC)N(C)C(=O)C2(CCCC2)NC(=O)[C@@H]2CCCN2C(=O)[C@H](CCc2ccc(C(F)(F)F)c(Cl)c2)NC(=O)CN(C)C(=O)[C@H](CC2CCCCC2)N(C)C(=O)CN(C)C(=O)CN(C)C1=O [Compound 1277] ([NMeL]I[Sar][Sar][NMeCha][Sar][hPhe(3-Cl-4-CF3)]P[Ac5c][NMeI]D-Morpholide; lactam N-11) | 6.7
12 | CC[C@H](C)[C@@H]1NC(=O)[C@H](CC(C)C)N(C)C(=O)C[C@@H](C(=O)N2CCS(=O)(=O)CC2)NC(=O)[C@H]([C@@H](C)CC)N(C)C(=O)C2(CCCC2)NC(=O)[C@@H]2CCCN2C(=O)[C@H](CCc2ccc(C(F)(F)F)c(Cl)c2)NC(=O)CN(C)C(=O)[C@H](CC2CCCCC2)N(C)C(=O)CN(C)C(=O)CN(C)C1=O [Compound 1279] ([NMeL]I[Sar][Sar][NMeCha][Sar][hPhe(3-Cl-4-CF3)]P[Ac5c][NMeI]D-{Thiomorpholino(1,1-dioxo)}; lactam N-11) | 16
13 | CC[C@H](C)[C@@H]1NC(=O)[C@H](CC(F)(F)F)N(C)C(=O)C[C@@H](C(=O)N2CCCC2)N(C)C(=O)[C@H](C2CCCCC2)N(C)C(=O)C2(CCCC2)NC(=O)[C@@H]2CC(F)(F)CN2C(=O)[C@H](CCc2cc(F)c(C(F)(F)F)c(F)c2)NC(=O)CN(C)C(=O)[C@H](CC2CCCCC2)N(C)C(=O)CN(C)C(=O)CN(C)C1=O [Compound 1281] ([NMeAbu(4,4,4-F3)]I[Sar][Sar][NMeCha][Sar][hPhe(3,5-F2-4-CF3)][Pro(4,4-F2)][Ac5c][NMeChg][NMeD]-Pyrrolidide; lactam N-11) | 0.42
14 | CC[C@H](C)[C@@H]1NC(=O)[C@H](CC(C)C)N(CC)C(=O)C[C@@H](C(=O)N(C)C)N(C)C(=O)[C@H](C2CCCC2)N(C)C(=O)C2(CCCC2)NC(=O)[C@@H]2CCCN2C(=O)[C@H](CCc2ccc(C(F)(F)F)c(Cl)c2)NC(=O)CN(C)C(=O)[C@H](Cc2ccc(C)cc2)N(C)C(=O)[C@@H]2CCN2C(=O)[C@H](C)NC1=O [Compound 1282] ([NEtLeu]IA[Aze][NMePhe(4-Me)][Sar][hPhe(3-Cl-4-CF3)]P[Ac5c][NMeGly(cPent)][NMeD]-NMe2; lactam N-11) | 0.81
15 | CCCC[C@@H]1NC(=O)[C@H](Cc2cc(I)ccc2F)NC(=O)CN(C)C(=O)[C@H](Cc2ccc(Cl)cc2)N(C)C(=O)CN(C)C(=O)CN(C)C(=O)[C@H]([C@@H](C)CC)NC(=O)[C@H](CC(C)C)N(C)C(=O)C[C@@H](C(=O)N2CCCCC2)N(C)C(=O)[C@H](CC(C)C)NC(=O)C(C)(C)N(C)C1=O [Compound 1286] ([NMeL]I[Sar][Sar][NMePhe(4-Cl)][Sar][X8][Nle][NMeAib]L[NMeD]-Piperidide; lactam N-11) | 24
16 | C#CC[C@@H]1NC(=O)[C@H](Cc2cccc(I)c2)NC(=O)CN(C)C(=O)[C@H](Cc2ccc(OC(F)(F)F)cc2)N(C)C(=O)[C@@H]2CCN2C(=O)[C@H](C)N(C)C(=O)[C@H]([C@@H](C)CC)NC(=O)[C@H](CC(C)C)N(C)C(=O)C[C@@H](C(=O)N2CCCCC2)N(C)C(=O)[C@H](CC(C)C)NC(=O)C(C)(C)N(C)C1=O [Compound 1288] ([NMeL]I[NMeA][Aze][NMeY](CF3)[Sar][Phe(3-I)][Pra][NMeAib]L[NMeD]-Piperidide; lactam N-11) | 31
17 | CC[C@H](C)[C@@H]1NC(=O)[C@H](CCC(C)C)N(C)C(=O)C[C@@H](C(=O)N2CCCC2)N(C)C(=O)[C@H]([C@@H](C)CC)N(C)C(=O)C2(CCCC2)NC(=O)[C@@H]2CCCN2C(=O)[C@H](CCc2ccc(C(F)(F)F)c(Cl)c2)NC(=O)CN(C)C(=O)[C@H](Cc2ccc(C(F)(F)F)cc2)N(C)C(=O)[C@@H]2CCN2C(=O)[C@H](C)N(C)C1=O [Compound 1289] ([NMehLeu]I[NMeA][Aze][NMePhe(4-CF3)][Sar][hPhe(3-Cl-4-CF3)]P[Ac5c][NMeI][NMeD]-Pyrrolidide; lactam N-11) | 0.67
